{"source": "patent US20070270413A1", "about": "“Mirtazapine for the treatment of neuropathic pain” (N.V. Organon, priority 2006, published 2007)", "key": {"[1]": {"test_system": "mechanical allodynia induced by ligation of the L5 spinal nerve", "assay": "Chung neuropathic model: mechanical allodynia, paw withdrawal threshold to von Frey filaments", "assay_type": "in vivo, rat", "from_the_text": "The Chung Neuropathic Model is an animal model of neuropathic pain. Animals with tight ligation of the L5 spinal nerve develop hyperalgesia and allodynia that can be measured using standard behavioural paradigms. Chung surgery: animals were anaesthetized with isoflurane administered in oxygen. Under sterile conditions, a longitudinal incision (about 5 mm lateral from the midline) was made at the lower lumbar-sacral level, exposing the paraspinal muscles on the left. The paraspinal muscles were then isolated and removed from the L4 spinous process to the sacrum using small blunt scissors. This opened up the space ventrolateral to the articular processes, dorsal to the L6 transverse process, and medial to the ileum. Small roungers were used to remove the L6 transverse process as completely as possible. The L5 spinal nerve was then isolated and tightly ligated. Upon completion of the operation, haemostasis was confirmed and the wound closed in layers using silk sutures and metal clips. Anaesthesia was then discontinued. Animals were kept in a cage with warm bedding until they had completely recovered from anaesthesia. The rats' withdrawal threshold to a mechanical stimulus (calibrated von Frey filaments) was measured (baseline reading). Rats were placed on an elevated (˜40 cm) mesh floor in Perspex boxes and filaments of increasing force (2.6-167 mN) were applied to the plantar surface of the paw using an up and down method (Chaplan et al., 1994). The paw was touched with one of a series of 8 von Frey hairs with logarithmically incremental stiffness. The von Frey hair was presented perpendicular to the plantar surface with sufficient force to cause buckling against the paw, and held for approximately 1-3 seconds. A positive response was noted if the paw was sharply withdrawn. A cut-off of 15 g was selected as the upper limit for testing, since stiffer hairs tend to raise the entire limb rather than buckling, substantially changing the nature of the stimulus. […] Data were expressed as mean±s.e.m. and compared between groups using the Kruskal-Wallis one-way analysis of variance, a non-parametric statistical test. Each of the treatment groups were then compared against the vehicle group, using the non-parametric Dunn's test. The time of maximum effect (Tmax) was calculated."}, "[2]": {"assay": "Side effects observed after s.c. dosing in the Chung neuropathic model", "description": "Following baseline measurements each animal was anaesthetised and the L5 spinal nerve tightly ligated. The animals were allowed to recover from the surgery for a period of at least five days. On the day of drug administration, the paw withdrawal thresholds were re-measured (0 min). […] Readings were then made at regular intervals after compound injection."}, "[3]": {"test_system": "mechanical allodynia induced by ligation of the L5 spinal nerve", "assay": "Chung neuropathic model: mechanical allodynia, paw withdrawal threshold to von Frey filaments", "assay_type": "in vivo, rat", "conditions": "10 and 30 μmol/kg, 40 min after administration, P<0.05 vs vehicle (Mann Whitney)"}}, "data": [{"compound": "CN1CCN2c3ncccc3Cc3ccccc3[C@H]2C1", "note": "[S(+)-mirtazapine]", "values": [{"measurement": "Tmax (time of maximum effect)", "setting": "[1]; 0.3 μmol/kg s.c.", "result": 1, "unit": "h"}, {"measurement": "Tmax (time of maximum effect)", "setting": "[1]; 3 μmol/kg s.c.", "result": 1, "unit": "h"}, {"measurement": "Tmax (time of maximum effect)", "setting": "[1]; 30 μmol/kg s.c., Table 1", "result": 1, "unit": "h"}, {"measurement": "Tmax (time of maximum effect)", "setting": "[1]; 60 μmol/kg s.c.", "result": 1, "unit": "h"}, {"measurement": "Reversal of mechanical allodynia", "setting": "[1]; 120 μmol/kg s.c.", "result": "53 % of the baseline"}, {"measurement": "Tmax (time of maximum effect)", "setting": "[1]; 120 μmol/kg s.c.", "result": 1, "unit": "h"}, {"measurement": "Anti-allodynic activity", "setting": "[1]; 60 and 120 μmol/kg s.c.", "result": "Anti-allodynic activity"}, {"measurement": "Effect on mechanical allodynia", "setting": "[1]; subcutaneous administration, maleate salt", "result": "significantly attenuated"}, {"measurement": "Injection site finding", "setting": "[2]; 120 μmol/kg s.c.", "result": "necrosis at site of injection"}, {"measurement": "Reaction on injection (s.c.)", "setting": "[2]; 120 μmol/kg s.c.", "result": "vocalisation/struggle on injection"}, {"measurement": "Behaviour when returned to holding cages after testing", "setting": "[2]; 60 and 120 μmol/kg group", "result": "hyperactive/excitable behaviour"}]}, {"compound": "CN1CCN2c3ncccc3Cc3ccccc3C2C1", "note": "(racemic) [Racemic mirtazapine, mirtazapine]", "values": [{"measurement": "Effect on withdrawal threshold", "setting": "[1]; 10 and 30 μmol/kg, 40 min after administration, not dose-dependent", "result": "small but significant effect"}, {"measurement": "Withdrawal threshold", "setting": "[3]", "result": "up to 4 g"}]}, {"compound": "R-mirtazapine [reference compound]", "values": [{"measurement": "Tmax (time of maximum effect)", "setting": "[1]; 10 μmol/kg s.c., Table 2", "result": 0.5, "unit": "h"}, {"measurement": "Tmax (time of maximum effect)", "setting": "[1]; 30 μmol/kg s.c., Table 2", "result": 0.5, "unit": "h"}, {"measurement": "Tmax (time of maximum effect)", "setting": "[1]; 100 μmol/kg s.c., Table 2", "result": 0.5, "unit": "h"}, {"measurement": "Effect on mechanical allodynia", "setting": "[1]; 10-100 μmol/kg s.c., free base", "result": "no effect"}, {"measurement": "Anti-allodynic activity", "setting": "[1]; doses up to 100 μmol/kg s.c.", "result": "no effect"}]}]}
